In experiment [1] the test system is Phosphorylated Ribosomal Protein S6 (RPS6) in THP-1 cells. Put plainly: THP-1 RPS6 ELISA Assay. It is filed as cell-based, Human. Conditions: Homo sapiens, serum starved, 2 hours compound, 10 nM MCP-1 for 15 minutes, Phospho-RPS6 ELISA, read-out: PI3Kγ_THP1_RPS6_ELISA IC50. As for the experimental part: Example A. THP-1 RPS6 ELISA Assay
To measure the Phosphorylated Ribosomal Protein S6 (RPS6) in cell lysates, THP-1 cells (Human Acute Monocytic Leukemia) are purchased from ATCC (Manassas, VA) and maintained in RPMI with 10% FBS (Gibco/Life Technologies, Carlsbad, CA). For the assay, THP-1 cells are serum starved overnight in RPMI, then plated in RPMI (2×10^5 cells/well in 90 μL) into 96-well flat-bottom tissue culture treated plates (Corning, Corning, NY), in the presence or absence of a concentration range of test compounds. Covered plates are incubated for 2 hours at 37° C., 5% CO2 then treated with or without 10 nM MCP-1(MYBioSource, San Diego, CA) for 15 minutes at 37° C., 5% CO2. Plates are centrifuged at 1600 RPM and supernatants are removed. Cells are lysed in Lysis Buffer (Cell Signaling, Danvers, MA) with Protease Inhibitor (Calbiochem/EMD, Germany), PMSF (Sigma, St Louis MO), HALTS (Thermo Fisher, Rockford, IL) for 30 min on wet ice. Cell lysates are frozen at −80° C. before testing. The lysates are tested in the Human/Mouse/Rat Phospho-RPS6 ELISA (R&D Systems, Inc. Minn, MN). The plate is measured using a microplate reader (SpectraMax M5—Molecular Devices, LLC Sunnyvale, CA) set to 450 nm with a wavelength correction of 540. IC50 determination is performed by fitting the curve of inhibitor percent inhibition versus the log of the inhibitor concentration using the GraphPad Prism 5.0 software.

The target of experiment [2] is PI3Kδ (p110δ/p85α) Recombinant Human Protein (Homo sapiens (Human), UniProt O00329). Put plainly: PI3Kδ Scintillation Proximity Assay. Conditions: 20 μM PIP2, 2 μM ATP, SPA. It is filed as biochemical. The text has this: Example C. PI3Kδ Scintillation Proximity Assay Materials: [γ-^33P]ATP (10 mCi/mL) and Wheat Germ Agglutinin (WGA) YSi SPA Scintillation Beads was purchased from Perkin Elmer (Waltham, MA). Lipid kinase substrate, D-myo-Phosphatidylinositol 4,5-bisphosphate (PtdIns(4,5)P2)D (+)-sn-1,2-di-O-octanoylglyceryl, 3-O-phospho linked (PIP2), CAS 204858-53-7, was purchased from Echelon Biosciences (Salt Lake City, UT). PI3Kδ (p110δ/p85α) Recombinant Human Protein was purchased from Eurofins (St Charles, MO). ATP, MgCl2, DTT, EDTA, MOPS and CHAPS were purchased from Sigma Aldrich (St. Louis, MO). The kinase reaction was conducted in polystyrene 384-well Greiner Bio-one white plate from Thermo Fisher Scientific in a final volume of 25 μL. Inhibitors were first diluted serially in DMSO and added to the plate wells before the addition of other reaction components. The final concentration of DMSO in the assay was 2%. The PI3Kδ assay was carried out at room temperature in 20 mM MOPS, pH 6.7, 10 mM MgCl2, 5 mM DTT and CHAPS 0.03%. Reactions were initiated by the addition of ATP, the final reaction mixture consisted of 20 μM PIP2, 2 μM ATP, 0.5 μCi [γ-^33P] ATP, 3.4 nM PI3Kδ. Reactions were incubated for 120 min and terminated by the addition of 40 μL SPA beads suspended in quench buffer: 163 mM potassium phosphate pH 7.8, 20% glycerol, 25 mM EDTA. The final concentration of SPA beads is 1.0 mg/mL. After the plate sealing, plates were shaken overnight at room temperature and centrifuged at 1500 rpm for 10 min, the radioactivity of the product was determined by scintillation counting on Topcount (PerkinElmer). IC50 determination was performed by fitting the curve of percent of the solvent control activity versus the log of the inhibitor concentration using the GraphPad Prism 6.0 software.

The target of experiment [3] is PI3Kγ (p110γ) Recombinant Human Protein (Homo sapiens (Human), UniProt P48736). As to the kind of experiment: PI3K-γ Scintillation Proximity Assay. Conditions: 20 μM PIP2, 2 μM ATP, SPA. It is filed as biochemical. The text has this: Example B. PI3K-γ Scintillation Proximity Assay Materials: [γ-^33P]ATP (10 mCi/mL) and Wheat Germ Agglutinin (WGA) YSi SPA Scintillation Beads was purchased from Perkin Elmer (Waltham, MA). Lipid kinase substrate, D-myo-Phosphatidylinositol 4,5-bisphosphate (PtdIns(4,5)P2)D (+)-sn-1,2-di-O-octanoylglyceryl, 3-O-phospho linked (PIP2), CAS 204858-53-7, was purchased from Echelon Biosciences (Salt Lake City, UT). PI3Kγ (p110γ) Recombinant Human Protein was purchased from Life technology (Grand Island, NY). ATP, MgCl2, DTT, EDTA, MOPS and CHAPS were purchased from Sigma Aldrich (St. Louis, MO). The kinase reaction was conducted in polystyrene 384-well Greiner Bio-one white plate from Thermo Fisher Scientific in a final volume of 25 μL. Inhibitors were first diluted serially in DMSO and added to the plate wells before the addition of other reaction components. The final concentration of DMSO in the assay was 2%. The PI3Kγ assay was carried out at room temperature in 20 mM MOPS, pH 6.7, 10 mM MgCl2, 5 mM DTT and CHAPS 0.03%. Reactions were initiated by the addition of ATP, the final reaction mixture consisted of 20 μM PIP2, 2 μM ATP, 0.5 μCi [γ-^33P] ATP, 13 nM PI3Kγ. Reactions were incubated for 120 min and terminated by the addition of 40 μL SPA beads suspended in quench buffer: 163 mM potassium phosphate pH 7.8, 20% glycerol, 25 mM EDTA. The final concentration of SPA beads is 1.0 mg/mL. After the plate sealing, plates were shaken overnight at room temperature and centrifuged at 1500 rpm for 10 min, the radioactivity of the product was determined by scintillation counting on Topcount (Perkin-Elmer). IC50 determination was performed by fitting the curve of percent of the solvent control activity versus the log of the inhibitor concentration using the GraphPad Prism 6.0 software.
Sequence of PI3Kγ (p110γ) Recombinant Human Protein (P48736 whole entry): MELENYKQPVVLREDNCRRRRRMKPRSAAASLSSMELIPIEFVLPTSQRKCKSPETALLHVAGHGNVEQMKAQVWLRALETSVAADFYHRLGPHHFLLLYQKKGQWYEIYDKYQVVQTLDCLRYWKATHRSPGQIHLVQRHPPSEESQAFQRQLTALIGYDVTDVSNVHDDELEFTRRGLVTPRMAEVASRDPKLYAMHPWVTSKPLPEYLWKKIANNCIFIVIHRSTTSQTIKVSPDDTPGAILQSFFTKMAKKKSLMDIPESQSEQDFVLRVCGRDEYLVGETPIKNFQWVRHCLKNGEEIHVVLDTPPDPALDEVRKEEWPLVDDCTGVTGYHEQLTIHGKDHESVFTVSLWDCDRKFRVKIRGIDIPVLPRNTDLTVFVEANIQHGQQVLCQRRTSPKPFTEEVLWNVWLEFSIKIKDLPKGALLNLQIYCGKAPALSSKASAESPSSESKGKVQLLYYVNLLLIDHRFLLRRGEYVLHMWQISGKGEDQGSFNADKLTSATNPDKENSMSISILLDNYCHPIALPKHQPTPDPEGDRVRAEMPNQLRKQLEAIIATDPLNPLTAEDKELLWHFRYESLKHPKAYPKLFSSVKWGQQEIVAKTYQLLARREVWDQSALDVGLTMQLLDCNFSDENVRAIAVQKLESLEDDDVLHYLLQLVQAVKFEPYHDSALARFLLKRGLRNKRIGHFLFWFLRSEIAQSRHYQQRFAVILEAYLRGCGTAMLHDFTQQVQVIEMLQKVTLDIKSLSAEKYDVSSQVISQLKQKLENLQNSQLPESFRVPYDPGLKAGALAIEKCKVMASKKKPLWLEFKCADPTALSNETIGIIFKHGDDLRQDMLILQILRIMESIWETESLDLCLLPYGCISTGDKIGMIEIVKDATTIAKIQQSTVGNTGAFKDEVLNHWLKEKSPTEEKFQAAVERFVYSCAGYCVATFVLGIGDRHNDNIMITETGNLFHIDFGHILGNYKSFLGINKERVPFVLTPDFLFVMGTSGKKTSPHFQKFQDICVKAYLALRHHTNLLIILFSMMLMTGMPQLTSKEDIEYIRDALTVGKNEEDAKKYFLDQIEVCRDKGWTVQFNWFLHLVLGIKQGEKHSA

Sequence of PI3Kδ (p110δ/p85α) Recombinant Human Protein (O00329 whole entry): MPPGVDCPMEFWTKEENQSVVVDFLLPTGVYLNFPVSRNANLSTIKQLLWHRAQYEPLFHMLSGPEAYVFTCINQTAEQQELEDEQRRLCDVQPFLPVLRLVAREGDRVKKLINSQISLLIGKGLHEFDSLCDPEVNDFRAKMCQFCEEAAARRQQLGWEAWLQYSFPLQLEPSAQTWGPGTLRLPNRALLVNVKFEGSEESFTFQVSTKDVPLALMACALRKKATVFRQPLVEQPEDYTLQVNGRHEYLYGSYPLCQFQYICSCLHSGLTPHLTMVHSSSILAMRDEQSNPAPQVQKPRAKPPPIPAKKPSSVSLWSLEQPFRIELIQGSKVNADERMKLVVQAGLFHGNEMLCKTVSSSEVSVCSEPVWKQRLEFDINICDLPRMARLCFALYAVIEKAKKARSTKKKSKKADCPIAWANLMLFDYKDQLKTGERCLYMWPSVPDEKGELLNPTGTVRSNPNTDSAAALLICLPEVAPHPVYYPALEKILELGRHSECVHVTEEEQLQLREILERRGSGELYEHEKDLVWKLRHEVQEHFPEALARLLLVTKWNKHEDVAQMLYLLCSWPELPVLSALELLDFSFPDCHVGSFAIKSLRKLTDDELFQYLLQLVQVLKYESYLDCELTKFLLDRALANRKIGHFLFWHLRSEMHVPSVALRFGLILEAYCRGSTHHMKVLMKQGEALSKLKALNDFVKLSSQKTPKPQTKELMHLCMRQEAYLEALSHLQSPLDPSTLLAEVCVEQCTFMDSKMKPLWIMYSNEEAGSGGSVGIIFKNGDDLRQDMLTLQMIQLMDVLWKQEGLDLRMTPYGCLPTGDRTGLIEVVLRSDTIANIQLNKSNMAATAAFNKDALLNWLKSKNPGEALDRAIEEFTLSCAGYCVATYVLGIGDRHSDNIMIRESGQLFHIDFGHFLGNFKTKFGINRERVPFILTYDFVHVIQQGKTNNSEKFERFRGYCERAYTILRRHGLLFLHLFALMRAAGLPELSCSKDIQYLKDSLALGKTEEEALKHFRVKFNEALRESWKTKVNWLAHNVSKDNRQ
Sequence of PI3Kδ (p110δ/p85α) Recombinant Human Protein (P27986 whole entry partner): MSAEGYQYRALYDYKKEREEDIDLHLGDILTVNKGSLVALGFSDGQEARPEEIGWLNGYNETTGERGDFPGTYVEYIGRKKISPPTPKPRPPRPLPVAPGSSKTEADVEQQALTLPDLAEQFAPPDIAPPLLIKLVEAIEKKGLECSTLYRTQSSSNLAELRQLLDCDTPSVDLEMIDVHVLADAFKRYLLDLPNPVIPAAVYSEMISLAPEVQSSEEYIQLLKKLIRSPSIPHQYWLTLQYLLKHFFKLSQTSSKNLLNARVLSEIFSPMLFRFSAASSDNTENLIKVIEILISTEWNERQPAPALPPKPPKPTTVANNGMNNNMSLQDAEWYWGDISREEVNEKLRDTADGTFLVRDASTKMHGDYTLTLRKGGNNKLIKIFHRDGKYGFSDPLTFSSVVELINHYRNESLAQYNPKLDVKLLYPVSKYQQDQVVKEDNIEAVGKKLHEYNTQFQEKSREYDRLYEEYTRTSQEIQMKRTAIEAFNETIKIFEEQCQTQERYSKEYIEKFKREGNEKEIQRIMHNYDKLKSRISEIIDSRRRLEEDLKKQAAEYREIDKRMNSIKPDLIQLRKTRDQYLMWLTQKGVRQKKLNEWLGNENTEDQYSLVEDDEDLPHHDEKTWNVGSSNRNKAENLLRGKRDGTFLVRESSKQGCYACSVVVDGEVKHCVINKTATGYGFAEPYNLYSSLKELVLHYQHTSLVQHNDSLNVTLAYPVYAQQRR

`[2H]C([2H])([2H])c1ccc(C(O)(C(C)O)C(F)(F)F)cc1-c1cnc(N)c(C(=O)NC2CCOCC2)n1` (single isomer, unassigned) [Example 19, 3-Amino-6-(2-(methyl-d3)-5-(1,1,1-trifluoro-2,3-dihydroxybutan-2-yl)phenyl)-N-(tetrahydro-2H-pyran-4-yl)pyrazine-2-carboxamide]: the IC50 in experiment [1] fell in the range of 0.1 to 0.5 µM.
Same read-out and setting: then `Cc1ccc(C(O)(CO)C(F)(F)F)cc1-c1cnc(N)c(C2CC(C(=O)N3CC(O)C3)C2)n1` (single isomer, unassigned) [Example 24, (3-(3-Amino-6-(2-methyl-5-(1,1,1-trifluoro-2,3-dihydroxypropan-2-yl)phenyl)pyrazin-2-yl)cyclobutyl)(3-hydroxyazetidin-1-yl)methanone], with 0.1 to 0.5 µM.
On to `Cc1ccc([C@](O)(CO)C(F)F)cc1-c1cnc(N)c(C(=O)N[C@@H](C)CO)n1` (single isomer, unassigned) [Example 43], for which the half-maximal inhibitory concentration (IC50) in experiment [2] and in experiment [1] was 0.1 to 0.5 µM throughout.
As to `Cc1ccc(C(O)(CO)C(F)(F)F)cc1-c1cnc(N)c(-c2cnn(C)c2)n1` (centres unmarked) [Example 2, 2-(3-(5-Amino-6-(1-methyl-1H-pyrazol-4-yl)pyrazin-2-yl)-4-methylphenyl)-3,3,3-trifluoropropane-1,2-diol], the IC50 in experiment [3] and in experiment [2] was ≤ 0.1 µM each time.
`Cc1ccc(C(O)(CO)C(F)(F)F)cc1-c1cnc(N)c(-c2cn[nH]c2)n1` (centres unmarked) [Example 3, 2-(3-(5-Amino-6-(1H-pyrazol-4-yl)pyrazin-2-yl)-4-methylphenyl)-3,3,3-trifluoropropane-1,2-diol]: the IC50 in experiment [3] and in experiment [2] was ≤ 0.1 µM throughout.
For the compound `Cc1cc(-c2nc(-c3cc(C(O)(CO)C(F)(F)F)ccc3C)cnc2N)on1` (centres unmarked) [Example 4, 2-(3-(5-Amino-6-(3-methylisoxazol-5-yl)pyrazin-2-yl)-4-methylphenyl)-3,3,3-trifluoropropane-1,2-diol], the IC50 in experiment [3] and in experiment [2] was ≤ 0.1 µM in each case.
`Cc1ccc(C(O)(CO)C(F)(F)F)cc1-c1cnc(N)c(-c2cnsc2)n1` (centres unmarked) [Example 5, 2-(3-(5-Amino-6-(isothiazol-4-yl)pyrazin-2-yl)-4-methylphenyl)-3,3,3-trifluoropropane-1,2-diol]: the IC50 in experiment [3] and in experiment [2] was ≤ 0.1 µM in each case.
Turning to `Cc1ccc(C(O)(CO)C(F)(F)F)cc1-c1cnc(N)c(-c2ccns2)n1` (centres unmarked) [Example 6, 2-(3-(5-Amino-6-(isothiazol-5-yl)pyrazin-2-yl)-4-methylphenyl)-3,3,3-trifluoropropane-1,2-diol], the IC50 in experiment [3] and in experiment [2] was ≤ 0.1 µM in each case.
Take `Cc1cc(-c2nc(-c3cc(C(O)(CO)C(F)(F)F)ccc3C)cnc2N)sn1` (centres unmarked) [Example 7, 2-(3-(5-amino-6-(3-methylisothiazol-5-yl)pyrazin-2-yl)-4-methylphenyl)-3,3,3-trifluoropropane-1,2-diol]: the IC50 in experiment [3] and in experiment [2] was ≤ 0.1 µM in each case.
For `Cc1ncc(-c2nc(-c3cc(C(O)(CO)C(F)(F)F)ccc3C)cnc2N)s1` (centres unmarked) [Example 10, 2-(3-(5-Amino-6-(2-methylthiazol-5-yl)pyrazin-2-yl)-4-methvlphenyl)-3,3,3-trifluoropropane-1,2-diol], the half-inhibitory concentration (IC50) in experiment [3] and in experiment [2] was ≤ 0.1 µM in each case.
For `Cc1ccc(C(O)(CO)C(F)(F)F)cc1-c1cnc(N)c(-c2cnco2)n1` (centres unmarked) [Example 11, 2-(3-(5-Amino-6-(oxazol-5-yl)pyrazin-2-yl)-4-methylphenyl)-3,3,3-trifluoropropane-1,2-diol], the IC50 in experiment [3] and in experiment [2] was ≤ 0.1 µM each time.
On to `Cc1ccc(C(O)(CO)C(F)(F)F)cc1-c1cnc(N)c(-n2ccnn2)n1` (centres unmarked) [Example 13, 2-(3-(5-Amino-6-(1H-1,2,3-triazol-1-yl)pyrazin-2-yl)-4-methylphenyl)-3,3,3-trifluoropropane-1,2-diol], for which the IC50 in experiment [3] and in experiment [2] was ≤ 0.1 µM in each case.
For `[2H]C([2H])([2H])c1ccc(C(O)(C(O)C(F)(F)F)C(F)(F)F)cc1-c1cnc(N)c(-c2c[nH]nc2C)n1` (centres unmarked) [Example 20, 2-(3-(5-Amino-6-(3-methyl-1H-pyrazol-4-yl)pyrazin-2-yl)-4-(methyl-d3)phenyl)-1,1,1,4,4,4-hexafluorobutane-2,3-diol], the IC50 in experiment [2] was in the range of 0.1 to 0.5 µM.
Turning to `Cc1ccc(C(O)(C(C)(C)O)C(F)(F)F)cc1-c1cnc(N)c(C(=O)NC2CCOCC2)n1` (centres unmarked) [Example 22, 3-Amino-6-(2-methyl-5-(1,1,1-trifluoro-2,3-dihydroxy-3-methylbutan-2-yl)phenyl)-N-(tetrahydro-2H-pyran-4-yl)pyrazine-2-carboxamide], the IC50 in experiment [2] lay in the range of 0.1 to 0.5 µM.
As to `[2H]C([2H])([2H])c1ccc([C@](O)(CO)C(F)(F)F)cc1-c1cnc(N)c(C(=O)N[C@H](C)CO)n1` [Example 36, 3-Amino-N-((R)-1-hydroxypropan-2-yl)-6-(2-(methyl-d3)-5-((S)-1,1,1-trifluoro-2,3-dihydroxypropan-2-yl)phenyl)pyrazine-2-carboxamide], in experiment [1], the IC50 lay within 0.1 to 0.5 µM.
On the same count and under the same terms, then `[2H]C([2H])([2H])c1ccc([C@](O)(CO)C(F)F)cc1-c1cnc(N)c(C(=O)N[C@H]2CCCC[C@@H]2O)n1` [Example 38, 3-Amino-6-(5-((S)-1,1-difluoro-2,3-dihydroxypropan-2-yl)-2-(methyl-d3)phenyl)-N-((1S,2S)-2-hydroxycyclohexyl)pyrazine-2-carboxamide], with 0.1 to 0.5 µM.
The same measure, in the same setting: then `[2H]C([2H])([2H])c1ccc([C@](O)(CO)C(F)F)cc1-c1cnc(N)c(C(=O)N[C@@H]2CCCC[C@H]2O)n1` [Example 39, 3-Amino-6-(5-((S)-1,1-difluoro-2,3-dihydroxypropan-2-yl)-2-(methyl-d3)phenyl)-N-((1R,2R)-2-hydroxycyclohexyl)pyrazine-2-carboxamide], with 0.1 to 0.5 µM.
With `Cc1ccc([C@](O)(CO)C(F)F)cc1-c1cnc(N)c(C(=O)NC(C)C)n1` [Example 46, (S)-3-Amino-6-(5-(1,1-difluoro-2,3-dihydroxypropan-2-yl)-2-methylphenyl)-N-isopropylpyrazine-2-carboxamide], the concentration for half-maximal inhibition (IC50) in experiment [3] and in experiment [2] was ≤ 0.1 µM in each case.

The record behind these values is patent US12365668B2, “Aminopyrazine diol compounds as PI3K-y inhibitors” (Incyte Corporation, priority 2018, dated 2025).
